Converted amounts (≈) assume the structure as drawn. Non-standard residues stand in square brackets, D forms with d. Residues, ends and D or L forms follow the SMILES beside them. Phe(4-Br) = N[C@@H](Cc1ccc(Br)cc1)C(=O)O; Phe(4-Me) = Cc1ccc(C[C@H](N)C(=O)O)cc1; 2Nal = N[C@@H](Cc1ccc2ccccc2c1)C(=O)O; hLeu = CC(C)CC[C@H](N)C(=O)O; Nle = CCCC[C@H](N)C(=O)O; Nva = CCC[C@H](N)C(=O)O
How the values were obtained:
[1] = test system: Staphylococcus aureus (NRS 384); assay: microbe, parasite or virus in culture; format: cell-based; settings: NRS 384
Text: According to the Standards of Clinical and Laboratory Standards Institute (CLSI) of the USA for antimicrobial drug susceptibility test operation standards, a micronutrient serial twofold dilution method was used to determine minimum inhibitory concentrations (MICs) of all 60 peptides (S/N: LV-1˜LV-60) against Staphylococcus aureus (NRS 384). The experiment was repeated 5 times in parallel. […] An antibacterial drug Levofloxacin and an AMP Cbf-K16 (sequence of Cbf-K16: […]) were used as positive controls to evaluate the antibacterial effect of the antimicrobial peptides on Staphylococcus aureus (NRS 384).

rabbit red blood cells = format: cell-based; settings: red cells of rabbit, 1 h
Experimental: Fresh rabbit blood ([…]) was collected and centrifuged at 500 g for 5 min, a supernatant was discarded, and red blood cells were repeatedly washed with phosphate-buffered saline (PBS, 0.01 M, pH 7.4) until the supernatant was clear. The red blood cells (RBCs) were resuspended to 10 mL, and diluted 25-fold with PBS (0.01 M, pH 7.4) to prepare a red blood cell suspension with a concentration of about 2×10^8 RBC/mL. The AMPs were subjected to gradient dilution with normal saline (0.85%, w/v, NaCl) according to a multiple dilution method, final concentrations of the SMPs were 1.95, 3.9, 7.8, 15.6, 31.3, 62.5, 125, 250, 500, 1000, and 2000 μg/mL. 100 μl of polypeptide solution was taken and added to a 96-well plate with 5 replicates for each concentration; 100 μl of rabbit blood with a red blood cell count of about 2×10^8 RBC/mL was then added to each well, the plate was incubated at 37° C. for 1 h, centrifuged at 500 g for 5 min, 100 μl of supernatant was taken and transferred to a new 96-well plate, and an optical density (OD) at a wavelength of 541 nm was measured using a microplate reader. Triton X-100 (10 mg/mL as a starting concentration, two-fold gradient dilution) was used as a positive control group. A hemolysis rate was calculated using the following formula: Hemolysis rate (%)=[(OD541 of experimental group-OD541 of negative control group)/(OD541 of positive control group−OD541 of negative control group)]×100% Specific results of the hemolysis test are shown in Table 6. Minimum hemolytic concentration (MHC): a lowest drug concentration that can cause 10% hemolysis.

MIC against Staphylococcus aureus (NRS 384) [1] | SMILES | MHC (minimum hemolytic concentration, lowest concentration causing 10% hemolysis) (rabbit red blood cells)
4 µg/mL (≈ 2.43 µM) | CC(=O)N[C@@H](CCCNC(=N)N)C(=O)N[C@@H](CCCCN)C(=O)N[C@@H](CC(C)C)C(=O)N[C@@H](CC(C)C)C(=O)N[C@@H](Cc1ccc2ccccc2c1)C(=O)N[C@@H](CCCNC(=N)N)C(=O)N[C@@H](CC(C)C)C(=O)N[C@@H](CCCCN)C(=O)N[C@@H](Cc1ccc2ccccc2c1)C(=O)N[C@@H](CCCNC(=N)N)C(=O)N[C@@H](CCCCN)C(N)=O [LV-50] (Ac-RKLL[2Nal]RLK[2Nal]RK-NH2) | >1000 µg/mL
4 µg/mL (≈ 2.39 µM) | CC(=O)N[C@@H](CCCNC(=N)N)C(=O)N[C@@H](CCCNC(=N)N)C(=O)N[C@@H](CC(C)C)C(=O)N[C@@H](CC(C)C)C(=O)N[C@@H](Cc1ccc2ccccc2c1)C(=O)N[C@@H](CCCNC(=N)N)C(=O)N[C@@H](CC(C)C)C(=O)N[C@@H](CCCCN)C(=O)N[C@@H](Cc1ccc2ccccc2c1)C(=O)N[C@@H](CCCNC(=N)N)C(=O)N[C@@H](CCCCN)C(N)=O [LV-51] (Ac-RRLL[2Nal]RLK[2Nal]RK-NH2) | >1000 µg/mL
8 µg/mL (≈ 4.78 µM) | CC(=O)N[C@@H](CCCNC(=N)N)C(=O)N[C@@H](CCCCN)C(=O)N[C@@H](CC(C)C)C(=O)N[C@@H](CC(C)C)C(=O)N[C@@H](Cc1ccc2ccccc2c1)C(=O)N[C@@H](CCCNC(=N)N)C(=O)N[C@@H](CC(C)C)C(=O)N[C@@H](CCCCN)C(=O)N[C@@H](Cc1ccc2ccccc2c1)C(=O)N[C@@H](CCCNC(=N)N)C(=O)N[C@@H](CCCNC(=N)N)C(N)=O [LV-52] (Ac-RKLL[2Nal]RLK[2Nal]RR-NH2) | >1000 µg/mL
4 µg/mL (≈ 2.47 µM) | CC(=O)N[C@@H](CCCCN)C(=O)N[C@@H](CCCNC(=N)N)C(=O)N[C@@H](CC(C)C)C(=O)N[C@@H](CC(C)C)C(=O)N[C@@H](Cc1ccc2ccccc2c1)C(=O)N[C@@H](CCCCN)C(=O)N[C@@H](CC(C)C)C(=O)N[C@@H](CCCCN)C(=O)N[C@@H](Cc1ccc2ccccc2c1)C(=O)N[C@@H](CCCCN)C(=O)N[C@@H](CCCNC(=N)N)C(N)=O [LV-53] (Ac-KRLL[2Nal]KLK[2Nal]KR-NH2) | >1000 µg/mL
8 µg/mL (≈ 4.86 µM) | CC(=O)N[C@@H](CCCNC(=N)N)C(=O)N[C@@H](CCCNC(=N)N)C(=O)N[C@@H](CC(C)C)C(=O)N[C@@H](CC(C)C)C(=O)N[C@@H](Cc1ccc2ccccc2c1)C(=O)N[C@@H](CCCCN)C(=O)N[C@@H](CC(C)C)C(=O)N[C@@H](CCCCN)C(=O)N[C@@H](Cc1ccc2ccccc2c1)C(=O)N[C@@H](CCCCN)C(=O)N[C@@H](CCCNC(=N)N)C(N)=O [LV-54] (Ac-RRLL[2Nal]KLK[2Nal]KR-NH2) | >1000 µg/mL

The next lines start with the compound.

SMILES | MIC against Staphylococcus aureus (NRS 384) [1] | MHC (minimum hemolytic concentration, lowest concentration causing 10% hemolysis) (rabbit red blood cells)
CC(=O)N[C@@H](CCCCN)C(=O)N[C@@H](CCCCN)C(=O)N[C@@H](CC(C)C)C(=O)N[C@@H](CC(C)C)C(=O)N[C@@H](Cc1ccc(Br)cc1)C(=O)N[C@@H](CCCNC(=N)N)C(=O)N[C@@H](CC(C)C)C(=O)N[C@@H](CCCCN)C(=O)N[C@@H](Cc1ccc(Br)cc1)C(=O)N[C@@H](CCCNC(=N)N)C(=O)N[C@@H](CCCCN)C(N)=O [LV-40] (Ac-KKLL[Phe(4-Br)]RLK[Phe(4-Br)]RK-NH2) | 4 µg/mL (≈ 2.39 µM) | >1000 µg/mL
CC(=O)N[C@@H](CCCNC(=N)N)C(=O)N[C@@H](CCCCN)C(=O)N[C@@H](CC(C)C)C(=O)N[C@@H](CC(C)C)C(=O)N[C@@H](Cc1ccc(C)cc1)C(=O)N[C@@H](CCCCN)C(=O)N[C@@H](CC(C)C)C(=O)N[C@@H](CCCCN)C(=O)N[C@@H](Cc1ccc(C)cc1)C(=O)N[C@@H](CCCCN)C(=O)N[C@@H](CCCNC(=N)N)C(N)=O [LV-41] (Ac-RKLL[Phe(4-Me)]KLK[Phe(4-Me)]KR-NH2) | 4 µg/mL (≈ 2.59 µM) | >1000 µg/mL
CCCC[C@H](NC(=O)[C@H](CCCCN)NC(=O)[C@H](CCCNC(=N)N)NC(C)=O)C(=O)N[C@@H](CCCC)C(=O)N[C@@H](Cc1ccc2ccccc2c1)C(=O)N[C@@H](CCCNC(=N)N)C(=O)N[C@@H](CCCC)C(=O)N[C@@H](CCCCN)C(=O)N[C@@H](Cc1ccc2ccccc2c1)C(=O)N[C@@H](CCCNC(=N)N)C(=O)N[C@@H](CCCCN)C(N)=O [LV-42] (Ac-RK[Nle][Nle][2Nal]R[Nle]K[2Nal]RK-NH2) | 8 µg/mL (≈ 4.86 µM) | >1000 µg/mL
CCC[C@H](NC(=O)[C@H](CCCCN)NC(=O)[C@H](CCCNC(=N)N)NC(C)=O)C(=O)N[C@@H](CCC)C(=O)N[C@@H](Cc1ccc2ccccc2c1)C(=O)N[C@@H](CCCNC(=N)N)C(=O)N[C@@H](CCC)C(=O)N[C@@H](CCCCN)C(=O)N[C@@H](Cc1ccc2ccccc2c1)C(=O)N[C@@H](CCCNC(=N)N)C(=O)N[C@@H](CCCCN)C(N)=O [LV-43] (Ac-RK[Nva][Nva][2Nal]R[Nva]K[2Nal]RK-NH2) | 8 µg/mL (≈ 4.99 µM) | >1000 µg/mL
CC(=O)N[C@@H](CCCNC(=N)N)C(=O)N[C@@H](CCCCN)C(=O)N[C@@H](CCC(C)C)C(=O)N[C@@H](CCC(C)C)C(=O)N[C@@H](Cc1ccc2ccccc2c1)C(=O)N[C@@H](CCCNC(=N)N)C(=O)N[C@@H](CCC(C)C)C(=O)N[C@@H](CCCCN)C(=O)N[C@@H](Cc1ccc2ccccc2c1)C(=O)N[C@@H](CCCNC(=N)N)C(=O)N[C@@H](CCCCN)C(N)=O [LV-44] (Ac-RK[hLeu][hLeu][2Nal]R[hLeu]K[2Nal]RK-NH2) | 8 µg/mL (≈ 4.74 µM) | >1000 µg/mL
CC(=O)N[C@@H](CCCNC(=N)N)C(=O)N[C@@H](CCCCN)C(=O)N[C@@H](C)C(=O)N[C@@H](C)C(=O)N[C@@H](Cc1ccc2ccccc2c1)C(=O)N[C@@H](CCCNC(=N)N)C(=O)N[C@@H](C)C(=O)N[C@@H](CCCCN)C(=O)N[C@@H](Cc1ccc2ccccc2c1)C(=O)N[C@@H](CCCNC(=N)N)C(=O)N[C@@H](CCCCN)C(N)=O [LV-45] (Ac-RKAA[2Nal]RAK[2Nal]RK-NH2) | 2 µg/mL (≈ 1.32 µM) | >1000 µg/mL
CC(=O)N[C@@H](CCCNC(=N)N)C(=O)N[C@@H](CCCCN)C(=O)N[C@H](C(=O)N[C@H](C(=O)N[C@@H](Cc1ccc2ccccc2c1)C(=O)N[C@@H](CCCNC(=N)N)C(=O)N[C@H](C(=O)N[C@@H](CCCCN)C(=O)N[C@@H](Cc1ccc2ccccc2c1)C(=O)N[C@@H](CCCNC(=N)N)C(=O)N[C@@H](CCCCN)C(N)=O)C(C)C)C(C)C)C(C)C [LV-46] (Ac-RKVV[2Nal]RVK[2Nal]RK-NH2) | 4 µg/mL (≈ 2.49 µM) | >1000 µg/mL
CC(=O)N[C@@H](CCCCN)C(=O)N[C@@H](CCCCN)C(=O)N[C@@H](CC(C)C)C(=O)N[C@@H](CC(C)C)C(=O)N[C@@H](Cc1ccc2ccccc2c1)C(=O)N[C@@H](CCCCN)C(=O)N[C@@H](CC(C)C)C(=O)N[C@@H](CCCCN)C(=O)N[C@@H](Cc1ccc2ccccc2c1)C(=O)N[C@@H](CCCCN)C(=O)N[C@@H](CCCCN)C(N)=O [LV-47] (Ac-KKLL[2Nal]KLK[2Nal]KK-NH2) | 2 µg/mL (≈ 1.28 µM) | >1000 µg/mL
CC(=O)N[C@@H](CCCNC(=N)N)C(=O)N[C@@H](CCCCN)C(=O)N[C@@H](CC(C)C)C(=O)N[C@@H](CC(C)C)C(=O)N[C@@H](Cc1ccc2ccccc2c1)C(=O)N[C@@H](CCCCN)C(=O)N[C@@H](CC(C)C)C(=O)N[C@@H](CCCCN)C(=O)N[C@@H](Cc1ccc2ccccc2c1)C(=O)N[C@@H](CCCCN)C(=O)N[C@@H](CCCNC(=N)N)C(N)=O [LV-48] (Ac-RKLL[2Nal]KLK[2Nal]KR-NH2) | 4 µg/mL (≈ 2.47 µM) | >1000 µg/mL
CC(=O)N[C@@H](CCCCN)C(=O)N[C@@H](CCCCN)C(=O)N[C@@H](CC(C)C)C(=O)N[C@@H](CC(C)C)C(=O)N[C@@H](Cc1ccc2ccccc2c1)C(=O)N[C@@H](CCCNC(=N)N)C(=O)N[C@@H](CC(C)C)C(=O)N[C@@H](CCCCN)C(=O)N[C@@H](Cc1ccc2ccccc2c1)C(=O)N[C@@H](CCCNC(=N)N)C(=O)N[C@@H](CCCCN)C(N)=O [LV-49] (Ac-KKLL[2Nal]RLK[2Nal]RK-NH2) | 8 µg/mL (≈ 4.94 µM) | >1000 µg/mL

Reference: patent publication US20250304620A1, “ANTIMICROBIAL PEPTIDE AND APPLICATION THEREOF” (priority 2023, published 2025)
